Values of other authors, collected in patent US20100255118A1, “ORAL ZINC MEDICANTS USEFUL FOR SAFELY LOWERING FREE COPPER ABSORPTION AND FREE COPPER LEVELS” (priority 2007, published 2010).

Tests used:
[1] = humans, oral dose of Cu64 as copper acetate
[2] = infant rhesus monkeys
[3] = adequate intake by mothers prior to pregnancy
[4] = Wilson's patients

Molecule: copper acetate
- oral dose absorbed from the gastrointestinal tract [1]: about 65%
- oral dose absorbed from the gastrointestinal tract (range) ([1]; range): 15-97%

Molecule: [67Cu] [Cu^67]
- copper absorption [2]: 50-70%

Molecule: Nc1nc2ncc(CNc3ccc(C(=O)N[C@@H](CCC(=O)O)C(=O)O)cc3)nc2c(=O)[nH]1 [folic acid]
- reduction of the incidence of NTDs [3]: up to 70%

Molecule: [Zn] [zinc]
- time to achieve intestinal metallothionein induction and a negative copper balance [4]: approximately two
- copper balance induced (average) ([4]; at the two week point): −0.35 mg daily
